# In patent publication US12275731B2, “Azaindole inhibitors of wild-type and mutant forms of LRRK2” (DANA-FARBER CANCER INSTITUTE, INC., priority 2018, dated 2025):
# Tests used:
# Experiment in all cases: KinomeScan profiling
# Format in all cases: binding
# TXK = target: T1, TXK (Homo sapiens, UniProt P42681); conditions: read-out: % control
# T1 sequence (P42681 1-527): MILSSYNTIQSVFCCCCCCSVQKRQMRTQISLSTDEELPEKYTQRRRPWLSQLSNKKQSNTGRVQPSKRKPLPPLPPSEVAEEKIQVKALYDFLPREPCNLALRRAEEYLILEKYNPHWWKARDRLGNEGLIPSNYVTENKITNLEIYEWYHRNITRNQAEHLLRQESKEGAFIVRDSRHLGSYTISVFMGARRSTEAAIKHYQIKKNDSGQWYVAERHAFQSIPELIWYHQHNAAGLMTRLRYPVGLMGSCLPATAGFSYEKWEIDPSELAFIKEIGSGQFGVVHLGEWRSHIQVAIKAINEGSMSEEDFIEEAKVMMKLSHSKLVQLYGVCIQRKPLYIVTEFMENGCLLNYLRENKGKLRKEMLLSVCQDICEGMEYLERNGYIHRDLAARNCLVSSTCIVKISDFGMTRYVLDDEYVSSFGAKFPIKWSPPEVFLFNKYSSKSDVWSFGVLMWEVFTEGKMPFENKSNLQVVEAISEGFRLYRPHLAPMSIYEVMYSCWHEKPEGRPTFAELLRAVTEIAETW
# Method in brief: (§1)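 1 μM cpd in DMSO; 468-kinase panel; readout RLU. % ctrl = (cpd − pos ctrl)/(neg ctrl − pos ctrl) ×100. Pos ctrl = 0%, DMSO = 100%. Hit cut-off <35%.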
# DDR1 = DDR1 (Homo sapiens, UniProt Q08345); conditions: DDR1, 1 μM; read-out: % control
# Sequence of DDR1 (Q08345 19-913): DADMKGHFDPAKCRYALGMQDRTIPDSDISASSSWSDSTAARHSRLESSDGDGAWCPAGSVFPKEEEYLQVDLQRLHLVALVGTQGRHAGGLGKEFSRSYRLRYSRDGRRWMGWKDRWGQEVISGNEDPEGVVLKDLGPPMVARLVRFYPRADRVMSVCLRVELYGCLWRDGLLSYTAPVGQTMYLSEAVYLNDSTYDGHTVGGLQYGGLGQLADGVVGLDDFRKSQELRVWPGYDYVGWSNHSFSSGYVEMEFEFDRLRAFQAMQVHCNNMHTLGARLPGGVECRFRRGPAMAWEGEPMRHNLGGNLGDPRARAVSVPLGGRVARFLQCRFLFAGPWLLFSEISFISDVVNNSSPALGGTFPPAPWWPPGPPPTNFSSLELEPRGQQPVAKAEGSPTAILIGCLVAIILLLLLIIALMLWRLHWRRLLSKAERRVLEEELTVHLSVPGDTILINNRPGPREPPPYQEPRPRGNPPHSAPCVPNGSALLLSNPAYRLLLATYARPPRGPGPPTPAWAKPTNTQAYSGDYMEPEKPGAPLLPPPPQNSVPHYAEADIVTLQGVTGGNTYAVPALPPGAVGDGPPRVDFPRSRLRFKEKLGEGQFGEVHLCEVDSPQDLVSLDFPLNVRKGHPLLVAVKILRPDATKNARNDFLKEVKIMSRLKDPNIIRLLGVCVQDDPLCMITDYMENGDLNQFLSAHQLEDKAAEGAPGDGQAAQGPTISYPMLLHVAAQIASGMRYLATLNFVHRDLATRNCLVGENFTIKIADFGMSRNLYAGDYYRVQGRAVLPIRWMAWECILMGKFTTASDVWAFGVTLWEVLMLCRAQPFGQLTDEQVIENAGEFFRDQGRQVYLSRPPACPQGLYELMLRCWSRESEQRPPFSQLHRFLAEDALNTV
# Method in brief: as §1
# NEK7 = NEK7 (Homo sapiens, UniProt Q8TDX7); conditions: NEK7, 1 μM; read-out: % control
# Sequence of NEK7 (Q8TDX7 whole entry): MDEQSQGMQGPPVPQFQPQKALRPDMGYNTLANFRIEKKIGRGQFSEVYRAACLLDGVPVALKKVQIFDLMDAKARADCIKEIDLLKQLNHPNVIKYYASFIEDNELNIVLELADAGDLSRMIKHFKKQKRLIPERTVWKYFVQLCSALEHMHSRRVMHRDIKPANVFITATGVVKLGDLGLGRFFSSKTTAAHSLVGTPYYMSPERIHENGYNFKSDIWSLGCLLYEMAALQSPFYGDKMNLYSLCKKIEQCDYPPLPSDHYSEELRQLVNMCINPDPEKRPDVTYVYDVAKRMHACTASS
# Method in brief: as §1
# PIM3 = target: T2, PIM3 (Homo sapiens, UniProt Q86V86); conditions: PIM3, 1 μM; read-out: % control
# T2 construct: purchased KinomeScan® (panel service)
# Method in brief: as §1
# MEK4 = target: T3, MEK4 (Homo sapiens, UniProt P45985); conditions: MEK4, 1 μM; read-out: % control
# T3 sequence (P45985 1-399): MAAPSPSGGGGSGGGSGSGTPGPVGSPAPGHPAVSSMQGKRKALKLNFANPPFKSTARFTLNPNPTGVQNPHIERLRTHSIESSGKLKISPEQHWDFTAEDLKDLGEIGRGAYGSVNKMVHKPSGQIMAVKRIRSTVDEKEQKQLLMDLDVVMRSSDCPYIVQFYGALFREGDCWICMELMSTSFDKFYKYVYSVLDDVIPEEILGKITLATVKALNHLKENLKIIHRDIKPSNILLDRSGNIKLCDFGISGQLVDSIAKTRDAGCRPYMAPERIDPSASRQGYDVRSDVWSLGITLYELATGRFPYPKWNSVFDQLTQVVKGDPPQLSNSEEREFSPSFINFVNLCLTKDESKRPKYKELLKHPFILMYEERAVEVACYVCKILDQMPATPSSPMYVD
# Method in brief: as §1
# ZAP70 = target: T4, ZAP70 (Homo sapiens, UniProt P43403); conditions: ZAP70, 1 μM; read-out: % control
# T4 sequence (P43403 1-619): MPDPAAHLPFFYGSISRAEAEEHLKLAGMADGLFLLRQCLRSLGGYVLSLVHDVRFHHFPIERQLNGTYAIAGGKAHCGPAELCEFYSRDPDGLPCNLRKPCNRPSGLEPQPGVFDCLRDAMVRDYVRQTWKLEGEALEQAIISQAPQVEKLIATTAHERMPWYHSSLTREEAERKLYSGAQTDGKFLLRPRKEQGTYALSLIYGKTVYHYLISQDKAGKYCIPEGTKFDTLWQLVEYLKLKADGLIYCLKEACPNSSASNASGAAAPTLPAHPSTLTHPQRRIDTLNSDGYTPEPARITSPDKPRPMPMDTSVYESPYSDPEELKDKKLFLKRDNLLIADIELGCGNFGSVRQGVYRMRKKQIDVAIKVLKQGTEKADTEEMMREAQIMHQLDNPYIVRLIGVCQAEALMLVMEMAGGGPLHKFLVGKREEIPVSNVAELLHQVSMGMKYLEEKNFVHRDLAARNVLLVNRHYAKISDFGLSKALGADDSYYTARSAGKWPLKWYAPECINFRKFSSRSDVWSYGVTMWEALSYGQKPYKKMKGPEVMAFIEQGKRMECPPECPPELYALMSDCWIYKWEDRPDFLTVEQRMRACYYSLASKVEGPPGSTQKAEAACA
# Method in brief: as §1
# JNK3 = target: T5, JNK3 (Homo sapiens, UniProt P53779); conditions: JNK3, 1 μM; read-out: % control
# T5 construct: purchased KinomeScan®
# T5 sequence (P53779 whole entry): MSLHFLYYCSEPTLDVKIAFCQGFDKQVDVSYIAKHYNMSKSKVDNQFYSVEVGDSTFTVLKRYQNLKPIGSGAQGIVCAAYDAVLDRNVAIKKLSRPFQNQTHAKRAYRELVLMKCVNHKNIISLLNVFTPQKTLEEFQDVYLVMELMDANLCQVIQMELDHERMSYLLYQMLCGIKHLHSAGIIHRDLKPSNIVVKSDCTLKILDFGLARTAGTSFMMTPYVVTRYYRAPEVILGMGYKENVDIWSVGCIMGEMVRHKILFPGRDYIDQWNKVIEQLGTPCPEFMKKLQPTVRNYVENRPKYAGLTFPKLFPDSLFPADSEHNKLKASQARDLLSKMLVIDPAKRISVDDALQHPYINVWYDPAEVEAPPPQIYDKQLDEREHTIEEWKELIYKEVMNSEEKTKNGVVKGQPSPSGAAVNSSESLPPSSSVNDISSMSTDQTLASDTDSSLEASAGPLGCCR
# Method in brief: as §1
# FER = FER (Homo sapiens, UniProt P16591); conditions: read-out: % control
# Sequence of FER (P16591 whole entry): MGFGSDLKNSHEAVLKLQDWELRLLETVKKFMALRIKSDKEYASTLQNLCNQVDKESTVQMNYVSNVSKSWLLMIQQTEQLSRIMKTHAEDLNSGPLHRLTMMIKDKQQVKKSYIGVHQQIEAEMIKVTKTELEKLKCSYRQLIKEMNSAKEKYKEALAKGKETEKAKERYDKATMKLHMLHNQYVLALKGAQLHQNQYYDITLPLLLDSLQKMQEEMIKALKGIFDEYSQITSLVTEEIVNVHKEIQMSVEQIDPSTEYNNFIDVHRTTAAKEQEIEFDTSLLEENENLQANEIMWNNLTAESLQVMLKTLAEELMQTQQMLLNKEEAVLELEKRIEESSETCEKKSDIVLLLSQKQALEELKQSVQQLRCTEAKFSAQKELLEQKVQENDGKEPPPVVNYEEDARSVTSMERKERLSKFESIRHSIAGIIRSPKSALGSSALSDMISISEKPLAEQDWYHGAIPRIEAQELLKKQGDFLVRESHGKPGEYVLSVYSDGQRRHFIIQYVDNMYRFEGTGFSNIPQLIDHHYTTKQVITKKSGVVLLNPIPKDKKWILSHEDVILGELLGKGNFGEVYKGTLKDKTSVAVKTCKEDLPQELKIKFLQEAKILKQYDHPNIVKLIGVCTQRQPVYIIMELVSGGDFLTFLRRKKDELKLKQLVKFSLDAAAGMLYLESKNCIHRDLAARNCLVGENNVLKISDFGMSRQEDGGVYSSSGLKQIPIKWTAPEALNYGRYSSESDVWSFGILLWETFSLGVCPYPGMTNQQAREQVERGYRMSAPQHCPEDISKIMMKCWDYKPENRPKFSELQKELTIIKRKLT
# Method in brief: as §1
# SRC = target: T6, SRC (Homo sapiens, UniProt P12931); conditions: read-out: % control
# T6 construct: purchased KinomeScan® (panel service)
# T6 sequence (P12931 whole entry): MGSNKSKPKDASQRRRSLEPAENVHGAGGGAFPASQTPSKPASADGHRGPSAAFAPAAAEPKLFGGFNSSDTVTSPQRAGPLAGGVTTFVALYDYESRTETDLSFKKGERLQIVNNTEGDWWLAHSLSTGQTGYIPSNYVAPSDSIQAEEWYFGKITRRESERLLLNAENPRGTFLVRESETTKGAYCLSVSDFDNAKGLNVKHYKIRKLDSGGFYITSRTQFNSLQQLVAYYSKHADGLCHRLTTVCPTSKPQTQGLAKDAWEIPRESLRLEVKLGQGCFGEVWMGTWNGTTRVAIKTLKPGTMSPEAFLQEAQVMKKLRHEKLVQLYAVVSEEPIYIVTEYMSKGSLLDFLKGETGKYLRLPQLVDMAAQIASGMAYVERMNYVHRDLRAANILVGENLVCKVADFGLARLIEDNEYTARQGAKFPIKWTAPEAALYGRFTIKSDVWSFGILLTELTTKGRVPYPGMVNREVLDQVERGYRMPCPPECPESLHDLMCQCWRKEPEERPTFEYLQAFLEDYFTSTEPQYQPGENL
# Method in brief: as §1
# MAP4K5 = MAP4K5 (Homo sapiens, UniProt Q9Y4K4); conditions: MAP4K5, 1 μM; read-out: % control
# Sequence of MAP4K5 (Q9Y4K4 whole entry): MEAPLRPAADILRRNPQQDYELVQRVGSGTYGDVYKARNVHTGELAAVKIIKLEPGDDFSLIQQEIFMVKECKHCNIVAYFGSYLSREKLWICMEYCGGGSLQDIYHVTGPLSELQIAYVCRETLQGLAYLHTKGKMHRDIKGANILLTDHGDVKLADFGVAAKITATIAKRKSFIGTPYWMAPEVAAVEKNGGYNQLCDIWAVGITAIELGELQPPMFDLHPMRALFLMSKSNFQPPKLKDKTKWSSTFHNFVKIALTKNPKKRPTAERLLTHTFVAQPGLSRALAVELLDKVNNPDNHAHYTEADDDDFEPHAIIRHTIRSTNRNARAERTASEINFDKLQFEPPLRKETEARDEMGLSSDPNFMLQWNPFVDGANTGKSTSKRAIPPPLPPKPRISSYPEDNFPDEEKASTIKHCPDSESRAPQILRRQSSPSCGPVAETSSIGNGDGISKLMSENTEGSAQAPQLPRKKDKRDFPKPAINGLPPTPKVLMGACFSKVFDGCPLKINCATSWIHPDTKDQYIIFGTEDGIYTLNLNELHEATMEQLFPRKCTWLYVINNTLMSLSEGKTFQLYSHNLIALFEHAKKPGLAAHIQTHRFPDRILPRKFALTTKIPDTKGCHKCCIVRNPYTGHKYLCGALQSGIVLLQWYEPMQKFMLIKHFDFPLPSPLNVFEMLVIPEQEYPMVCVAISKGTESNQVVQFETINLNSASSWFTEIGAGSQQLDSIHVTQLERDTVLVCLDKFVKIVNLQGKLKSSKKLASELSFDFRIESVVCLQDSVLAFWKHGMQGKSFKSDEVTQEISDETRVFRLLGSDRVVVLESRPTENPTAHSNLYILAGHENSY
# Method in brief: as §1
# NEK2 = target: T7, NEK2 (Homo sapiens, UniProt P51955); conditions: NEK2, 1 μM; read-out: % control
# T7 sequence (P51955 1-445): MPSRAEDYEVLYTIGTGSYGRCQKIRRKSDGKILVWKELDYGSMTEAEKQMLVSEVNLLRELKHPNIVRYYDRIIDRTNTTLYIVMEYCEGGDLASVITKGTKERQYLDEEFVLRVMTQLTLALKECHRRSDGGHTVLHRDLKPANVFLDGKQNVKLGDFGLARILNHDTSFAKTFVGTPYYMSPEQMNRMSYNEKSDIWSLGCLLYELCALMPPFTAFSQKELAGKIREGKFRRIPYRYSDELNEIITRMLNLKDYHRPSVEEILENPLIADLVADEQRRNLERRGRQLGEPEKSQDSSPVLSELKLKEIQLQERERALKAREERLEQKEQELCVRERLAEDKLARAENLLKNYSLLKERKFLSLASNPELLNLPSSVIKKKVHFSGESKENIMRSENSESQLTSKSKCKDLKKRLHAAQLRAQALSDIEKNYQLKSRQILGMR
# Method in brief: as §1
Structure (SMILES),remaining binding at 1 µM (TXK),remaining binding at 1 µM (DDR1),remaining binding at 1 µM (NEK7),remaining binding at 1 µM (PIM3),remaining binding at 1 µM (MEK4),remaining binding at 1 µM (ZAP70),remaining binding at 1 µM (JNK3),remaining binding at 1 µM (FER),remaining binding at 1 µM (SRC),remaining binding at 1 µM (MAP4K5),remaining binding at 1 µM (NEK2)
"CNc1c(-c2cnn([C@H]3CCN(C(C)=O)C[C@@H]3F)c2)cnc2[nH]cc(Cl)c12 [Compound 77, 1-((3S,4S)-4-(4-(3-chloro-4-(methylamino)-1H-pyrrolo[2,3-b]pyridin-5-yl)-1H-pyrazol-1-yl)-3-fluoropiperidin-1-yl)ethan-1-one]",81%,100%,100%,99%,45%,100%,1.9%,100%,99%,77%,100%
"CNc1c(-c2ccc(C(=O)N3CCC(N4CCOCC4)CC3)cc2)cnc2[nH]cc(Cl)c12 [Compound 96, (4-(3-chloro-4-(methylamino)-1H-pyrrolo[2,3-b]pyridin-5-yl)phenyl)(4-morpholinopiperidin-1-yl)methanone]",81%,100%,100%,100%,7.3%,100%,0.35%,100%,100%,39%,100%
"O=C(c1ccc(-c2cnc3[nH]cc(Cl)c3c2NC2CCCC2)cc1)N1CCC(N2CCOCC2)CC1 [Compound 101, (4-(3-chloro-4-(cyclopentylamino)-1H-pyrrolo[2,3-b]pyridin-5-yl)phenyl)(4-morpholinopiperidin-1-yl)methanone]",84%,61%,95%,96%,28%,55%,7.6%,100%,100%,88%,100%
